ChEMBL document CHEMBL1129205, “Small peptide inhibitors of 47 mediated MAdCAM-1 adhesion to lymphocytes” (Bioorg Med Chem Lett, 1996)

Test system: HuT78
Test: Compound was tested for inhibition of MAdCAM-1/alpha-4 beta-7 mediated cell adhesion to T-cell lymphoma, HUT78 cells
Format: functional, cell-based
Settings: Homo sapiens

Row | IC50 [µM] | Compound
1 | 18.6 | CC(C)C[C@H](NC(=O)[C@H](CO)NC(=O)[C@@H](NC(=O)[C@H](CC(=O)O)NC(=O)[C@H](CC(C)C)NC(=O)C1c2ccccc2-c2ccccc21)[C@@H](C)O)C(N)=O
2 | 13.4 | CC(C)C[C@H](NC(=O)[C@H](CO)NC(=O)[C@@H](NC(=O)[C@H](CC(=O)O)NC(=O)[C@H](CC(C)C)NC(=O)C(c1ccccc1)c1ccccc1)[C@@H](C)O)C(N)=O
3 | > 1000 | CC(C)C[C@H](NC(=O)[C@H](CO)NC(=O)[C@@H](NC(=O)[C@H](CC(=O)O)NC(=O)[C@H](CC(C)C)NC(=O)C(C1CCCCC1)C1CCCCC1)[C@@H](C)O)C(N)=O
4 | > 1000 | CCCC(CCC)C(=O)N[C@@H](CC(C)C)C(=O)N[C@@H](CC(=O)O)C(=O)N[C@H](C(=O)N[C@@H](CO)C(=O)N[C@@H](CC(C)C)C(N)=O)[C@@H](C)O
5 | > 1000 | CC(C)C[C@H](NC(=O)[C@H](CO)NC(=O)[C@@H](NC(=O)[C@H](CC(=O)O)NC(=O)[C@H](CC(C)C)NC(=O)Cc1ccccc1)[C@@H](C)O)C(N)=O

Row | Compound | IC50 [µM]
6 | CC(C)C[C@H](NC(=O)[C@H](CO)NC(=O)[C@@H](NC(=O)[C@H](CC(=O)O)NC(=O)[C@H](CC(C)C)NC(=O)CCCc1ccc2ccc3cccc4ccc1c2c34)[C@@H](C)O)C(N)=O | 5

Test system: not listed separately
Test: Inhibition of MAdCAM-1/alpha-4 beta7-mediated cell adhesion to T-cell lymphoma, HUT78 cells at 500 uM
Format: functional
Settings: not given

Row | Compound | Inhibition [%]
7 | CC(=O)N[C@@H](CCCN=C(N)N)C(=O)NCC(=O)N[C@@H](CC(C)C)C(=O)N[C@@H](CC(=O)O)C(=O)N[C@H](C(=O)N[C@@H](CO)C(=O)N[C@@H](CC(C)C)C(=O)NCC(N)=O)[C@@H](C)O (stereo in doubt; 4) | 75
8 | CC(=O)N[C@@H](CCCN=C(N)N)C(=O)NCC(=O)N[C@@H](CC(C)C)C(=O)N[C@@H](CC(=O)O)C(=O)N[C@H](C(=O)N[C@@H](CO)C(=O)N[C@@H](CC(C)C)C(=O)NCC(N)=O)[C@@H](C)O (stereo in doubt; 10) | 36

Same assay, conditions: HuT78

Row | Compound | inhibition at 500 µM [%]
9 | CC(C)C[C@H](NC(=O)[C@H](CO)NC(=O)[C@@H](NC(=O)[C@H](CC(=O)O)NC(=O)[C@H](CC(C)C)NC(=O)CCCc1ccc2ccc3cccc4ccc1c2c34)[C@@H](C)O)C(N)=O | 5
10 | CC(C)C[C@H](NC(=O)[C@H](CO)NC(=O)[C@@H](NC(=O)[C@H](CC(=O)O)NC(=O)[C@H](CC(C)C)NC(=O)C1c2ccccc2-c2ccccc21)[C@@H](C)O)C(N)=O | 18.6
11 | CC(C)C[C@H](NC(=O)[C@H](CO)NC(=O)[C@@H](NC(=O)[C@H](CC(=O)O)NC(=O)[C@H](CC(C)C)NC(=O)C(c1ccccc1)c1ccccc1)[C@@H](C)O)C(N)=O | 13.4
12 | CC(=O)N[C@@H](CC(C)C)C(=O)N[C@H](CC(=O)O)C(=O)N[C@H](C(=O)N[C@@H](CO)C(=O)N[C@@H](CC(C)C)C(N)=O)[C@@H](C)O | 0
13 | Ac-AAASL-NH2 | 0
14 | Ac-ADTSL-NH2 | 3
15 | Ac-DTSLGSVQ-NH2 | 0
16 | Ac-GLDTSLGS-NH2 | 28
17 | Ac-HWRGLDTS-NH2 | 46
18 | Ac-HWRGLDTSLGSV-NH2 | 71
19 | Ac-LATSL-NH2 | 0
20 | Ac-LDTSLGSV-NH2 | 16
21 | Ac-LNTSL-NH2 | 0
22 | Ac-LYTSL-NH2 | 0
23 | Ac-RVHWAGLD-NH2 | 0
24 | Ac-RVHWRGLDTSLGSVQ-NH2 | 88
25 | Ac-VHWRGLDT-NH2 | 48
26 | Ac-WRGLDTSL-NH2 | 52
27 | Ac-WRGLDTSLGS-NH2 | 71
